Source: US7262192B2, “Substituted pyrazolo[4,3-d]pyrimidines and their use as PDE-5 inhibitors” (Pfizer Inc., priority 2003, dated 2007)

Molecular target: cGMP-specific PDE-5 (UniProt O76074)
Experiment: PDE-5 inhibition, batch method or scintillation proximity assay
Format: biochemical, human
Conditions: activity against PDE-5; representative preferred compounds
Excerpt: The compounds of the invention are inhibitors of cyclic guanylate monophosphate (cGMP)-specific phosphodiesterase type 5 (PDE-5 inhibitors).
The required PDE enzymes can be isolated from a variety of sources, including human corpus cavernosum, human and rabbit platelets, human cardiac ventricle, human skeletal muscle and bovine retina, essentially by a modification of the method of Thompson, W J et al.; Biochemistry 18(23), 5228-5237, 1979, as described by Ballard S A et al.; J. Urology 159(6), 2164-2171, 1998. In particular, cGMP-specific PDE-5 and cGMP-inhibited cAMP PDE-3 can be obtained from human corpus cavernosum tissue, human platelets or rabbit platelets; cGMP-stimulated PDE-2 was obtained from human corpus cavernosum; calcium/calmodulin (Ca/CAM)-dependent PDE-1 from human cardiac ventricle; cAMP-specific PDE-4 from human skeletal muscle; and photoreceptor PDE-6 from bovine retina. Phosphodiesterases 7-11 can be generated from full length human recombinant clones transfected into SF9 cells.
Assays can be performed either using a modification of the “batch” method of Thompson W J and Appleman M M; Biochemistry 10(2),311-316, 1971, essentially as described by Ballard S A et al.; J. Urology 159(6), 2164-2171, 1998, or using a scintillation proximity assay for the direct detection of [^3H]-labelled AMP/GMP using a modification of the protocol described by Amersham plc under product code TRKQ7090/7100. In summary, for the scintillation proximity assay the effect of PDE inhibitors was investigated by assaying a fixed amount of enzyme in the presence of varying inhibitor concentrations and low substrate, (cGMP or cAMP in a 3:1 ratio unlabelled to [^3H]-labeled at a concentration of ˜⅓ Km or less) such that IC50≈Ki. The final assay volume was made up to 100 μL with assay buffer [20 mM Tris-HCl pH 7.4, 5 mM MgCl2, 1 mg/mL bovine serum albumin]. Reactions were initiated with enzyme, incubated for 30-60 min at 30° C. to give <30% substrate turnover and terminated with 50 μL silicate SPA beads (containing 3 mM of the respective unlabelled cyclic nucleotide for PDEs 9 and 11).

Row | SMILES | IC50
1 | CCOCc1nn(CCOCC(F)(F)F)c2c(Nc3cc(C)ccn3)nc(N3CCNC(C)C3)nc12 (stereo not shown) [Example 256] | 3.89 nM
2 | CCOCCn1nc(CO)c2nc(N(C)CC)nc(Nc3cc(C)ccn3)c21 [Example 181, [1-(2-Ethoxyethyl)-5-(N-ethyl-N-methylamino)-7-(4-methylpyridin-2-ylamino)-1H-pyrazolo[4,3-d]pyrimidin-3-yl]methanol] | 0.41 nM
3 | CCOCCn1nc(CC)c2nc(N(C)C3CCN(C)CC3)nc(Nc3ccncn3)c21 [Example 2] | 0.5 nM
4 | CCOCCn1nc(CC)c2nc(N(C)C3CCN(C)C3)nc(Nc3cc(C)ccn3)c21 (stereo not shown) [Example 162] | 0.24 nM
5 | CCOCc1nn(CCOCC(F)(F)F)c2c(Nc3cccc(C)n3)nc(N3CCNC(C)C3)nc12 (stereo not shown) [Example 255] | 1.43 nM
6 | CCOCCn1nc(COC)c2nc(N(C)C)nc(Nc3cc(C)ccn3)c21 [Example 185, 1-(2-Ethoxyethyl)-3-methoxymethyl-N^5,N^5-dimethyl-N^7-(4-methylpyridin-2-yl)-1H-pyrazolo[4,3-d]pyrimidine-5,7-diamine] | 1.32 nM

More lines, now with the values ahead:

Row | IC50 | SMILES
7 | 0.33 nM | CCOCCn1nc(C)c2nc(N3CC(C)NCC3C)nc(Nc3ccncn3)c21 (stereo not shown) [Example 138]
8 | 0.15 nM | CCOCCn1nc(CC)c2nc(N3CC(C)NCC3C)nc(Nc3ccncn3)c21 (stereo not shown) [Example 141]
9 | 2.4 nM | CCOCCn1nc(C)c2nc(N(C)[C@H]3CCN(C)C3)nc(Nc3ccncn3)c21 [Example 191, 1-(2-Ethoxyethyl)-N^5,3-dimethyl-N^5-[(3S)-1-methylpyrrolidin-3-yl]-N^7-pyrimidin-4-yl-1H-pyrazolo[4,3-d]pyrimidine-5,7-diamine]
10 | 0.31 nM | CCOCCn1nc(C)c2nc(N3CCNC(C)C3)nc(Nc3ccncn3)c21 (stereo not shown) [Example 11]
11 | 2.7 nM | CCOCCn1nc(COC)c2nc(N3CCN[C@H](C)C3)nc(Nc3cccc(C)n3)c21 [Example 211]
12 | 0.11 nM | CCOCCn1nc(CC)c2nc(N3CCNC(C)C3)nc(Nc3ccncn3)c21 (stereo not shown) [Example 15]
13 | 0.47 nM | CCCOCCn1nc(C)c2nc(N3CCNC(C)C3)nc(Nc3ccncn3)c21 (stereo not shown) [Example 23]
